Results as given in US8536097B2, “4-(4-haloalkyl-3-thiobenzoyl)pyrazoles and use thereof as herbicides” (Bayer Cropscience AG, priority 2010, dated 2013).

Key:
Format in all cases: in vivo
Matricaria inodora = experiment: Post-emergence herbicidal action against weed plants; conditions: dose 80 g a.c./ha, scored after 3 to 4 weeks
Description: (§1) [table] 2. Post-Emergence Herbicidal Action Against Weed Plants Seeds of monocotyledonous and dicotyledonous weed plants are set out in cardboard pots in sandy loam soil, covered with soil, and cultivated under glass under good growth conditions. Two to three weeks after sowing, the trial plants are treated at the three-leaf stage. The compounds according to the invention, formulated as wettable powders or as emulsifiable concentrates, are sprayed onto the surface of the green parts of the plants, at a water application rate of 600 to 800 I/ha (converted). After the trial plants have stood for 3 to 4 weeks under optimum growth conditions under glass, the action of the compounds according to the invention is scored in comparison to compounds disclosed in the prior art.

Cyperus serotinus = experiment: Pre-emergence herbicidal action against weed plants; conditions: scored after 3 to 4 weeks
Description: (§2) Seeds or rhizome sections of mono- and dicotyledonous weed plants are set out in pots of 9 to 13 cm in diameter, in sandy loam soil, and are covered with soil. The herbicides, formulated as emulsifiable concentrates or dusts, are applied to the surface of the covering earth in the form of aqueous dispersions or suspensions or emulsions, at a water application rate of 300 to 800 I/ha (converted) in different doses. The pots are then maintained under glass under optimum conditions for the further cultivation of the plants. After 3 to 4 weeks under optimum growth conditions under glass, the trial plants are scored for the effect of the compounds according to the invention in comparison to compounds disclosed in the prior art. […] [table]

Avena fatua = experiment: as above; conditions: dose 80 g a.c./ha, scored after 3 to 4 weeks
Description: as §2

Viola tricolor [1] = experiment: as above; conditions: scored after 3 to 4 weeks
Description: as §2

Amaranthus retroflexus = experiment: Post-emergence herbicidal action against weed plants; conditions: dose 320 g a.c./ha, scored after 3 to 4 weeks
Description: as §1

Viola tricolor [2] = experiment: as above; conditions: dose 320 g a.c./ha, scored after 3 to 4 weeks
Description: as §1

Setaria viridis = experiment: as above; conditions: dose 80 g a.c./ha, scored after 3 to 4 weeks
Description: as §1

Alopecurus myosuroides = experiment: Pre-emergence herbicidal action against weed plants; conditions: dose 320 g a.c./ha, scored after 3 to 4 weeks
Description: as §2

Cc1c(C(=O)c2cnn(C)c2O)ccc(C(F)(F)F)c1S(C)(=O)=O [1-4, known from WO 2008/125214]
Herbicidal action against MATIN (Matricaria inodora): 50%

Cc1c(C(=O)c2cnn(C)c2O)ccc(C(F)(F)F)c1[S+](C)[O-] (centres unmarked) [1-9, known from WO 2008/125214]
Herbicidal action against CYPES (Cyperus serotinus; dose 80 g a.c./ha): 50%
Herbicidal action against AVEFA (Avena fatua): 40%
Herbicidal action against VIOTR (Viola tricolor [1]; dose 80 g a.c./ha): 60%

Cc1c(C(=O)c2cnn(C)c2O)ccc(C(F)(F)C(F)(F)F)c1[S+](C)[O-] (centres unmarked) [1-153]
Herbicidal action against CYPES (Cyperus serotinus; dose 80 g a.c./ha): 100%
Herbicidal action against AVEFA (Avena fatua): 70%
Herbicidal action against VIOTR (Viola tricolor [1]; dose 80 g a.c./ha): 90%

Cc1c(C(=O)c2cnn(C)c2O)ccc(C(F)(F)C(F)(F)F)c1S(C)(=O)=O [1-161]
Herbicidal action against MATIN (Matricaria inodora): 100%

Cc1nn(C)c(O)c1C(=O)c1ccc(C(F)(F)F)c([S+](C)[O-])c1C (centres unmarked) [3-9, known from WO 2008/125214]
Herbicidal action against AMARE (Amaranthus retroflexus): 50%
Herbicidal action against VIOTR (Viola tricolor [2]): 40%
Herbicidal action against VIOTR (Viola tricolor [1]; dose 320 g a.c./ha): 40%

Cc1nn(C)c(O)c1C(=O)c1ccc(C(F)(F)F)c(S(C)(=O)=O)c1C [3-17, known from WO 2008/125214]
Herbicidal action against SETVI (Setaria viridis): 60%
Herbicidal action against CYPES (Cyperus serotinus; dose 320 g a.c./ha): 50%
Herbicidal action against ALOMY (Alopecurus myosuroides): 50%

Cc1nn(C)c(O)c1C(=O)c1ccc(C(F)(F)C(F)(F)F)c([S+](C)[O-])c1C (centres unmarked) [3-153]
Herbicidal action against AMARE (Amaranthus retroflexus): 80%
Herbicidal action against VIOTR (Viola tricolor [2]): 80%
Herbicidal action against VIOTR (Viola tricolor [1]; dose 320 g a.c./ha): 90%

Cc1nn(C)c(O)c1C(=O)c1ccc(C(F)(F)C(F)(F)F)c(S(C)(=O)=O)c1C [3-161]
Herbicidal action against SETVI (Setaria viridis): 100%
Herbicidal action against CYPES (Cyperus serotinus; dose 320 g a.c./ha): 80%
Herbicidal action against ALOMY (Alopecurus myosuroides): 90%
